Earlier results in PubChem BioAssay AID1259409 (Chemical Carcinogenesis Research Information System (CCRIS), 2018).

Test system: rodent chemically induced tumor inhibition, incidence and multiplicity
Test: CCRIS tumor inhibitor studies

Compound: CC1=C(/C=C/C(C)=C/C=C/C(C)=C/C=C/C=C(C)/C=C/C=C(C)/C=C/C2=C(C)CCCC2(C)C)C(C)(C)CCC1
- tumour outcome (control, treated, inhibition, significance) (Carcinogen: DIESEL EXHAUST PARTICLES, Dose [Inhibitor]: 0, 0.02% IN HIGH FAT DIET FOR DURATION OF STUDY (STUDY DURATION: 12 MO), Route [Inhibitor]: ORAL, Species: MOUSE, Strain/Sex: ICR/MALE, Target Tissue: Type of Lesion: LUNG: TUMOR, Dose [Carcinogen]: 0.1 MG 1/WK FOR 10 WK, Promoter: NONE USED): 13/30 (43%), 5/30 (17%), 60%, not calculated
- tumour outcome (control, treated, inhibition, significance) (Carcinogen: DIESEL EXHAUST PARTICLES, Dose [Inhibitor]: 0, 0.02% IN HIGH FAT DIET FOR DURATION OF STUDY (STUDY DURATION: 12 MO), Route [Inhibitor]: ORAL, Species: MOUSE, Strain/Sex: ICR/MALE, Target Tissue: Type of Lesion: LUNG: TUMOR, Dose [Carcinogen]: 0.2 MG 1/WK FOR 10 WK, Promoter: NONE USED): 7/29 (24%), 11/29 (38%), -58%, not calculated
- tumour outcome (control, treated, inhibition, significance) (Carcinogen: DIESEL EXHAUST PARTICLES, Dose [Inhibitor]: 0, 0.02% IN HIGH FAT DIET FOR DURATION OF STUDY (STUDY DURATION: 12 MO), Route [Inhibitor]: ORAL, Species: MOUSE, Strain/Sex: ICR/MALE, Target Tissue: Type of Lesion: LYMPHATIC SYSTEM: LYMPHOMA, Dose [Carcinogen]: 0.1 MG 1/WK FOR 10 WK, Promoter: NONE USED): 3/30 (10%), 9/30 (30%), -200%, not calculated
- tumour outcome (control, treated, inhibition, significance) (Carcinogen: DIESEL EXHAUST PARTICLES, Dose [Inhibitor]: 0, 0.02% IN HIGH FAT DIET FOR DURATION OF STUDY (STUDY DURATION: 12 MO), Route [Inhibitor]: ORAL, Species: MOUSE, Strain/Sex: ICR/MALE, Target Tissue: Type of Lesion: LYMPHATIC SYSTEM: LYMPHOMA, Dose [Carcinogen]: 0.2 MG 1/WK FOR 10 WK, Promoter: NONE USED): 8/29 (28%), 4/29 (14%), 50%, not calculated
- tumour outcome (control, treated, inhibition, significance) (Carcinogen: DIETHYLNITROSAMINE, 55-18-5, Dose [Inhibitor]: 0, 0.005% IN DIET FOR DURATION OF STUDY (STUDY DURATION: 13 WKS), Route [Inhibitor]: ORAL, Species: HAMSTER, Strain/Sex: SYRIAN/MALE, Target Tissue: Type of Lesion: LARYNX/TRACHEA: PAPILLOMA, Dose [Carcinogen]: 100 MG/KG BW ONCE, Promoter: CIGARETTE SMOKE): 13/28 (46%), 10/28 (36%), 22%, not significant
- tumour outcome (control, treated, inhibition, significance) (Carcinogen: DIETHYLNITROSAMINE, 55-18-5, Dose [Inhibitor]: 0, 0.05% IN DIET FOR DURATION OF STUDY (STUDY DURATION: 13 WKS), Route [Inhibitor]: ORAL, Species: HAMSTER, Strain/Sex: SYRIAN/MALE, Target Tissue: Type of Lesion: LARYNX/TRACHEA: PAPILLOMA, Dose [Carcinogen]: 100 MG/KG BW ONCE, Promoter: CIGARETTE SMOKE): 13/28 (46%), 11/29 (38%), 17%, not significant
- tumour outcome (control, treated, inhibition, significance) (Carcinogen: DIETHYLNITROSAMINE, 55-18-5, Dose [Inhibitor]: 0, 0.5% IN DIET FOR 10 D THEN REDUCED TO 0.25% FOR DURATION OF STUDY (STUDY DURATION: 13 WKS), Route [Inhibitor]: ORAL, Species: HAMSTER, Strain/Sex: SYRIAN/MALE, Target Tissue: Type of Lesion: LARYNX/TRACHEA: PAPILLOMA, Dose [Carcinogen]: 100 MG/KG BW ONCE, Promoter: CIGARETTE SMOKE): 13/28 (46%), 4/26 (15%), 67%, p< 0.05
- tumour outcome (control, treated, inhibition, significance) (Carcinogen: DIETHYLNITROSAMINE, 55-18-5, Dose [Inhibitor]: 0, 1.5 MG 2/WK FOR 20 WK (STUDY DURATION: 25 WK), Route [Inhibitor]: SUBCUTANEOUS, Species: HAMSTER, Strain/Sex: SYRIAN/MALE, Target Tissue: Type of Lesion: LUNG: CARCINOMA, Dose [Carcinogen]: 17.8 MG/KG BW 2/WK FOR 20 WK, Promoter: NONE USED): 50%, 26%, 48%, not significant
- tumour outcome (control, treated, inhibition, significance) (Carcinogen: DIETHYLNITROSAMINE, 55-18-5, Dose [Inhibitor]: 0, 1.5 MG 2/WK FOR 20 WK (STUDY DURATION: 25 WK), Route [Inhibitor]: SUBCUTANEOUS, Species: HAMSTER, Strain/Sex: SYRIAN/MALE, Target Tissue: Type of Lesion: TRACHEA: PAPILLOMA, Dose [Carcinogen]: 17.8 MG/KG BW 2/WK FOR 20 WK, Promoter: NONE USED): 95%, 100%, -5%, not significant
- tumour outcome (control, treated, inhibition, significance) (Carcinogen: DIETHYLNITROSAMINE, 55-18-5, Dose [Inhibitor]: 0, 3 MG 2/WK FOR 20 WK (STUDY DURATION: 25 WK), Route [Inhibitor]: SUBCUTANEOUS, Species: HAMSTER, Strain/Sex: SYRIAN/MALE, Target Tissue: Type of Lesion: LUNG: CARCINOMA, Dose [Carcinogen]: 17.8 MG/KG BW 2/WK FOR 20 WK, Promoter: NONE USED): 60%, 30%, 50%, not significant
- tumour outcome (control, treated, inhibition, significance) (Carcinogen: DIETHYLNITROSAMINE, 55-18-5, Dose [Inhibitor]: 0, 3 MG 2/WK FOR 20 WK (STUDY DURATION: 25 WK), Route [Inhibitor]: SUBCUTANEOUS, Species: HAMSTER, Strain/Sex: SYRIAN/MALE, Target Tissue: Type of Lesion: TRACHEA: PAPILLOMA, Dose [Carcinogen]: 17.8 MG/KG BW 2/WK FOR 20 WK, Promoter: NONE USED): 100%, 100%, 0%, not significant
- tumour outcome (control, treated, inhibition, significance) (Carcinogen: DIMETHYLBENZ[A]ANTHRACENE, 57-97-6, Dose [Inhibitor]: 0.25 ML OF 0.015% AGENT IN ACETONE ADMINISTERED WITH PROMOTER 5/WK FOR 16 WK BEGINNING 3 WK POST CARCINOGEN DOSE (STUDY, Route [Inhibitor]: DERMAL, Species: MOUSE, Strain/Sex: ICR/FEMALE, Target Tissue: Type of Lesion: SKIN: PAPILLOMA, Dose [Carcinogen]: 0.125 MG IN 0.25 ML ACETONE ONCE, Promoter: PHENOL, 108-95-2): 7/25 (28%), 6/28 (21%), 25%, not calculated
- tumour outcome (control, treated, inhibition, significance) (Carcinogen: DIMETHYLBENZ[A]ANTHRACENE, 57-97-6, Dose [Inhibitor]: 100 MG/KG OF DIET IMMEDIATELY FOLLOWING CARCINOGEN DOSE FOR 22 WK (STUDY DURATION: 22 WK), Route [Inhibitor]: ORAL, Species: RAT, Strain/Sex: SPRAGUE-DAWLEY/MALE, Target Tissue: Type of Lesion: SALIVARY GLAND: TUMOR, Dose [Carcinogen]: 1 MG IN OLIVE OIL INJECTED INTO ONE SALIVARY GLAND ONCE, Promoter: NONE USED): 3/9 (33%), 1/11 (9%), 73%, not significant
- tumour outcome (control, treated, inhibition, significance) (Carcinogen: METHYL(ACETOXYMETHYL)NITROSAMINE, 56856-83-8, Dose [Inhibitor]: 0, 5.8 NMOL IN DRINKING WATER BEGINNING 2 WK PRIOR TO CARCINOGEN AND CONTINUED FOR STUDY DURATION, (STUDY DURATION: 13 M, Dose [Inhibitor]: 0, 5.8 NMOL IN DRINKING WATER BEGINNING 2 WK PRIOR TO CARCINOGEN AND CONTINUED FOR STUDY DURATION, (STUDY DURATION: 13 M, Route [Inhibitor]: ORAL, Species: HAMSTER, Strain/Sex: SYRIAN/FEMALE, Target Tissue: Type of Lesion: ORAL CAVITY: TUMOR, Dose [Carcinogen]: 2 MG/KG BW IN DISTILLED WATER TO RIGHT CHEEK POUCH 2/MO FOR 6 MO (TOTAL DOSE 24 MG/KG), Promoter: NONE USED): 14/15 (93%), 4/15 (27%), 71%, p<0.001
- tumour outcome (control, treated, inhibition, significance) (Carcinogen: N-BUTYL-N-(4-HYDROXYBUTYL)NITROSAMINE, 3817-11-6, Dose [Inhibitor]: 0, 0.0025% IN DRINKING WATER FOR 12 WK BEGINNING POST CARCINOGEN TREATMENT (STUDY DURATION: 20 WK), Route [Inhibitor]: ORAL, Species: RAT, Strain/Sex: F344/MALE, Target Tissue: Type of Lesion: URINARY BLADDER: TRANSITIONAL CELL CARCINOMA, Dose [Carcinogen]: 0.05% IN DRINKING WATER FOR 8 WK, Promoter: NONE USED): 10/12 (83%), 12/12 (100%), -20%, not significant
- tumour outcome (control, treated, inhibition, significance) (Carcinogen: N-BUTYL-N-(4-HYDROXYBUTYL)NITROSAMINE, 3817-11-6, Dose [Inhibitor]: 0, 0.1% IN DIET BEGINNING 5 WK PRIOR TO CARCINOGEN TREATMENT AND CONTINUING FOR DURATION OF STUDY (STUDY DURATION: 7 MO), Route [Inhibitor]: ORAL, Species: MOUSE, Strain/Sex: B6D2F1/MALE, Target Tissue: Type of Lesion: BLADDER: CARCINOMA IN SITU, Dose [Carcinogen]: 5 MG IN SALINE SOLUTION 2/WK FOR 9 WK, Promoter: NONE USED): 7/24 (29%), 3/24 (13%), 55%, not calculated
- tumour outcome (control, treated, inhibition, significance) (Carcinogen: N-BUTYL-N-(4-HYDROXYBUTYL)NITROSAMINE, 3817-11-6, Dose [Inhibitor]: 0, 0.1% IN DIET BEGINNING 5 WK PRIOR TO CARCINOGEN TREATMENT AND CONTINUING FOR DURATION OF STUDY (STUDY DURATION: 7 MO), Route [Inhibitor]: ORAL, Species: MOUSE, Strain/Sex: B6D2F1/MALE, Target Tissue: Type of Lesion: BLADDER: TRANSITIONAL CELL CARCINOMA, Dose [Carcinogen]: 5 MG IN SALINE SOLUTION 2/WK FOR 9 WK, Promoter: NONE USED): 8/24 (33%), 5/24 (21%), 36%, not calculated
- tumour outcome (control, treated, inhibition, significance) (Carcinogen: N-BUTYL-N-(4-HYDROXYBUTYL)NITROSAMINE, 3817-11-6, Dose [Inhibitor]: 0, 0.1% IN DIET BEGINNING 5 WK PRIOR TO CARCINOGEN TREATMENT AND CONTINUING FOR DURATION OF STUDY (STUDY DURATION: 7 MO), Route [Inhibitor]: ORAL, Species: MOUSE, Strain/Sex: B6D2F1/MALE, Target Tissue: Type of Lesion: BLADDER: TUMOR, Dose [Carcinogen]: 5 MG IN SALINE SOLUTION 2/WK FOR 9 WK, Promoter: NONE USED): 15/24 (63%), 8/24 (33%), 48%, p<0.05
